Experimental data from ChEMBL document CHEMBL2073958, “Active transport of imatinib into and out of cells: implications for drug resistance” (Blood, 2004).

Biological target: ATP-dependent translocase ABCB1 (Homo sapiens, UniProt P08183)
Assay: TP_TRANSPORTER: transepithelial transport in MDR1-transfected MDCKII cells
Format: functional, cell-based
Conditions: dog, mdck-ii

Sequence of ATP-dependent translocase ABCB1 (P08183 whole entry): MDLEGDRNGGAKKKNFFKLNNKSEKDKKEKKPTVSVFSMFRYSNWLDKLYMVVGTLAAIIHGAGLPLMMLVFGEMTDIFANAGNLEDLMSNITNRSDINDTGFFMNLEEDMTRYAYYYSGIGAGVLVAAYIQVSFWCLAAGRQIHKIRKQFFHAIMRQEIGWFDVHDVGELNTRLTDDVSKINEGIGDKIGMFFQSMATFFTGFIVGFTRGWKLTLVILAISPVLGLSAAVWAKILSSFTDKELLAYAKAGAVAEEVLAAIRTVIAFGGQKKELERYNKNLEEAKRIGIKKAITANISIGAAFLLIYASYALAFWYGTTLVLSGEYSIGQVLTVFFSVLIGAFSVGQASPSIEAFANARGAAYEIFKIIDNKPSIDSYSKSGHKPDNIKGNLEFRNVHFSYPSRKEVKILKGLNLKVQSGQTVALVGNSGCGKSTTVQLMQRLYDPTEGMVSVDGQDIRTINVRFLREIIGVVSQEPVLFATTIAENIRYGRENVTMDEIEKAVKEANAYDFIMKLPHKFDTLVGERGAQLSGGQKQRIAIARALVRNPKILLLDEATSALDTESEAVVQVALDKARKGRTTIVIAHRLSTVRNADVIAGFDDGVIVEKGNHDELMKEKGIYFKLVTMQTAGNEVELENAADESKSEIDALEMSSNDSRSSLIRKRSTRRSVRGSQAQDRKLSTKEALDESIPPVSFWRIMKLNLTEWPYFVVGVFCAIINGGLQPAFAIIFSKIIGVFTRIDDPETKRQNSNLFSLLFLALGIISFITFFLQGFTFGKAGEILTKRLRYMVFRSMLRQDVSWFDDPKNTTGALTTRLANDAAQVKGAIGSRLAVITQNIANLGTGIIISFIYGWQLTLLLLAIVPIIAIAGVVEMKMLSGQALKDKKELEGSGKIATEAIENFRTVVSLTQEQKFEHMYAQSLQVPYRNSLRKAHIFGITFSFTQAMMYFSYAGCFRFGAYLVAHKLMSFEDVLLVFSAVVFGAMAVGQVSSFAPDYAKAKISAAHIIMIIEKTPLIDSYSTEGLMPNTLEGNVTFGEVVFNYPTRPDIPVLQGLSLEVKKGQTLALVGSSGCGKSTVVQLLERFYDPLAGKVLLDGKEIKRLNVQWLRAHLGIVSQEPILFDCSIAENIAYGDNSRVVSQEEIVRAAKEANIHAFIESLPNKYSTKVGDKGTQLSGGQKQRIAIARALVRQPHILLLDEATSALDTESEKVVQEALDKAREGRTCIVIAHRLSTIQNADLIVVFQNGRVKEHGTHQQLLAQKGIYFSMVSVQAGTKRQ

Activity: substrate [+]
SMILES: Cc1ccc(NC(=O)c2ccc(CN3CCN(C)CC3)cc2)cc1Nc1nccc(-c2cccnc2)n1 [IMATINIB]
